{"source": "patent US11229633B2", "about": "“Arimoclomol formulation” (Orphazyme A/S, priority 2014, dated 2022)", "key": {"[1]": {"molecular_target": "T1, human OAT1 (Homo sapiens, UniProt Q4U2R8)", "T1 construct": "expressed in transfected cells; host or cells: CHO (protocol UPT-CHO-OAT1-Tenofovir; control: parental CHO-K1)", "T1 sequence (Q4U2R8 1-563)": "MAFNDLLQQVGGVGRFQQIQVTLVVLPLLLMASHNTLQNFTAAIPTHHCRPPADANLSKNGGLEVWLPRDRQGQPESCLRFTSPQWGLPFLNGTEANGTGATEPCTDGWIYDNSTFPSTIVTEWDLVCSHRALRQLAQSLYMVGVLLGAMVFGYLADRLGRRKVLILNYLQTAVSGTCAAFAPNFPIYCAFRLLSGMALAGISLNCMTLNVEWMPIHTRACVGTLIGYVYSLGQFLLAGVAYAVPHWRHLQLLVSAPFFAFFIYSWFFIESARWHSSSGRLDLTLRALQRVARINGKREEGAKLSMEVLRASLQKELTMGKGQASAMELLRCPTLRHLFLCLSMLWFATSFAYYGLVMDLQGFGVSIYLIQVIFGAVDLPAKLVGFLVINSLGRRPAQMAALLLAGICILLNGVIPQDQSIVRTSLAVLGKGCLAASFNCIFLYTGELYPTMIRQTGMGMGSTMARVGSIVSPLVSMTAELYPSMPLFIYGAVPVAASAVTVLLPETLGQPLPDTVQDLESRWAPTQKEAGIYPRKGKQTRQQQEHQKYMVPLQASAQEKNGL", "assay": "Uptake transporter substrate feasibility assay, OAT1", "type": "in vitro ADME", "set-up": "key to Substrate: NIO: No interaction observed", "description": "Uptake experiments were performed using CHO, MDCKII, or HEK293 cells stably expressing the respective uptake transporters.\nCells were cultured at 37±1° C. in an atmosphere of 95:5 air:CO2 as described in Table 4 and were plated onto standard 24-well tissue culture plates at 2×10^5 cells/well. The uptake of the TA was determined using cells overexpressing the respective uptake transporter and control cells, at two incubation time points (2 and 20 min) and at two concentrations (1 and 10 μM) of TA to determine whether or not the TA was actively taken up into the cells.\nBefore the experiment, the medium was removed and the cells were washed twice with 300 μl of HK buffer (pH 7.4) (prepared from Sigma chemicals). Cellular uptake of TA into the cells was measured by adding 300 μl of HK buffer containing TA and incubating them at 37±1° C. Reactions were quenched by removing the HK buffer containing the TA and the cells were washed twice with 300 μl of HK buffer. Cells were lysed by adding 300 μl of MeOH:H2O (2:1) and incubated for 20 minutes at 4±1° C. The amount of TA in the cell lysate was determined by LC-MS/MS. The amount of protein in each well was quantified using the BCA kit for protein determination (Sigma-Aldrich, St Louis, Mo., USA). Uptake of the probe substrate in control cells provided background activity values for all data points. Incubation without reference inhibitor (solvent only) provided 100% activity values. A reference inhibitor served as positive control for inhibition.\nThe fold accumulation value was defined as the ratio of uptake of TA or probe substrate into transfected and control cells:\n[formula] UPTTRP: accumulated amount of TA or probe substrate in transfected cells normalized by protein content [pmol/mg protein] UPTCTL: accumulated amount of TA or probe substrate in control cells normalized by protein content [pmol/mg protein]\nIf the fold accumulation is >2 and can be inhibited by a known inhibitor of the transporter, the TA can be considered to be a substrate of the respective transporter."}, "[2]": {"molecular_target": "T2, OATP1B3 (Homo sapiens, UniProt Q9NPD5)", "T2 sequence (Q9NPD5 1-702)": "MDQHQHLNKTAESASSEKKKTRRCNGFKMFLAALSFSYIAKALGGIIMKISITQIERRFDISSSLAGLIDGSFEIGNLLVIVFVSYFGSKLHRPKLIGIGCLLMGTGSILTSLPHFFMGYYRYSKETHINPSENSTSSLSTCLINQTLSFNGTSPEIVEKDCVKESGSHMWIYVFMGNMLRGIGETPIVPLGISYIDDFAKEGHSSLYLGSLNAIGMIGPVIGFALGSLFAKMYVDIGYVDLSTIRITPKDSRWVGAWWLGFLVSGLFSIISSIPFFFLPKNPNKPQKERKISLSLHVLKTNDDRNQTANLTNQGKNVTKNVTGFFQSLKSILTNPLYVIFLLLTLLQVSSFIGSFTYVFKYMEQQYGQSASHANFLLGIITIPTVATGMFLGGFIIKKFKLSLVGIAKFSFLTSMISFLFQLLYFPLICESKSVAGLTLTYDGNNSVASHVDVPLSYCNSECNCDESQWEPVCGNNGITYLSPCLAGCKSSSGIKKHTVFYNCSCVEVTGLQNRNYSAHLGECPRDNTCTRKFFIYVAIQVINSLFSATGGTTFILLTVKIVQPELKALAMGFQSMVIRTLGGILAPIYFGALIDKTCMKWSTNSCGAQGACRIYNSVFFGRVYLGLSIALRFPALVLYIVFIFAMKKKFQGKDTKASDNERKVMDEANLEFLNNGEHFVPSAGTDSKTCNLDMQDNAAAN", "assay": "Substrate statement, OATP1B3", "type": "in vitro ADME"}, "[3]": {"settings": "in vivo; cited from earlier work"}}}
{"compound": "[O-][n+]1cccc(C(Cl)=NOCC(O)CN2CCCCC2)c1", "note": "(stereo not drawn) [Arimoclomol, N-[2-hydroxy-3-(1-piperidinyl)-propoxy]-pyridine-1-oxide-3-carboximidoyl chloride]", "values": [{"measurement": "Substrate of the transporter (in words)", "setting": "[1]", "value": "not a substrate"}, {"measurement": "Fold accumulation", "setting": "[1]; 1 μM, 2 min", "value": 0.77}, {"measurement": "Fold accumulation", "setting": "[1]; 1 μM, 20 min", "value": 0.75}, {"measurement": "Fold accumulation", "setting": "[1]; 10 μM, 2 min", "value": 0.56}, {"measurement": "Fold accumulation", "setting": "[1]; 10 μM, 20 min", "value": 0.73}, {"measurement": "Fold accumulation", "setting": "[1]; 1 and 10 μM, 2 and 20 min", "value": "< 2"}, {"measurement": "Substrate", "setting": "[1]; Table 2", "value": "NIO"}, {"measurement": "Substrate of the transporter (in words)", "setting": "[2]", "value": "not a substrate"}, {"measurement": "plasma half-life", "setting": "[3]", "value": "2 to 4", "unit": "h"}]}
